Results reported in patent US10758534B2 (Vertex Pharmaceuticals Incorporated, priority 2014, dated 2020).

Biological target: T1, F508del (Homo sapiens, UniProt P13569, DEL508-508)
T1 construct: expressed in transfected cells
Assay: Protocol 2: FRET membrane potential optical assay (VIPR), identification of correction compounds
Assay type: cell-based
Conditions: Table 3; compounds of Table 1 as modulators of CFTR activity; protocol not stated
Summary of the method: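 Corrector readout: membrane-potential FRET (CC2-DMPE donor, DiSBAC2(3) acceptor) on VIPR II after Cl⁻-free gluconate bath with 10 μM forskolin and 20 μM genistein. Before this, F508del-expressing NIH3T3 cells were exposed to test compound for 16 h at 37 °C without serum; 27 °C incubation served as temperature-correction control.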

T1 sequence (P13569 with tags, fused parts or gaps DEL508-508): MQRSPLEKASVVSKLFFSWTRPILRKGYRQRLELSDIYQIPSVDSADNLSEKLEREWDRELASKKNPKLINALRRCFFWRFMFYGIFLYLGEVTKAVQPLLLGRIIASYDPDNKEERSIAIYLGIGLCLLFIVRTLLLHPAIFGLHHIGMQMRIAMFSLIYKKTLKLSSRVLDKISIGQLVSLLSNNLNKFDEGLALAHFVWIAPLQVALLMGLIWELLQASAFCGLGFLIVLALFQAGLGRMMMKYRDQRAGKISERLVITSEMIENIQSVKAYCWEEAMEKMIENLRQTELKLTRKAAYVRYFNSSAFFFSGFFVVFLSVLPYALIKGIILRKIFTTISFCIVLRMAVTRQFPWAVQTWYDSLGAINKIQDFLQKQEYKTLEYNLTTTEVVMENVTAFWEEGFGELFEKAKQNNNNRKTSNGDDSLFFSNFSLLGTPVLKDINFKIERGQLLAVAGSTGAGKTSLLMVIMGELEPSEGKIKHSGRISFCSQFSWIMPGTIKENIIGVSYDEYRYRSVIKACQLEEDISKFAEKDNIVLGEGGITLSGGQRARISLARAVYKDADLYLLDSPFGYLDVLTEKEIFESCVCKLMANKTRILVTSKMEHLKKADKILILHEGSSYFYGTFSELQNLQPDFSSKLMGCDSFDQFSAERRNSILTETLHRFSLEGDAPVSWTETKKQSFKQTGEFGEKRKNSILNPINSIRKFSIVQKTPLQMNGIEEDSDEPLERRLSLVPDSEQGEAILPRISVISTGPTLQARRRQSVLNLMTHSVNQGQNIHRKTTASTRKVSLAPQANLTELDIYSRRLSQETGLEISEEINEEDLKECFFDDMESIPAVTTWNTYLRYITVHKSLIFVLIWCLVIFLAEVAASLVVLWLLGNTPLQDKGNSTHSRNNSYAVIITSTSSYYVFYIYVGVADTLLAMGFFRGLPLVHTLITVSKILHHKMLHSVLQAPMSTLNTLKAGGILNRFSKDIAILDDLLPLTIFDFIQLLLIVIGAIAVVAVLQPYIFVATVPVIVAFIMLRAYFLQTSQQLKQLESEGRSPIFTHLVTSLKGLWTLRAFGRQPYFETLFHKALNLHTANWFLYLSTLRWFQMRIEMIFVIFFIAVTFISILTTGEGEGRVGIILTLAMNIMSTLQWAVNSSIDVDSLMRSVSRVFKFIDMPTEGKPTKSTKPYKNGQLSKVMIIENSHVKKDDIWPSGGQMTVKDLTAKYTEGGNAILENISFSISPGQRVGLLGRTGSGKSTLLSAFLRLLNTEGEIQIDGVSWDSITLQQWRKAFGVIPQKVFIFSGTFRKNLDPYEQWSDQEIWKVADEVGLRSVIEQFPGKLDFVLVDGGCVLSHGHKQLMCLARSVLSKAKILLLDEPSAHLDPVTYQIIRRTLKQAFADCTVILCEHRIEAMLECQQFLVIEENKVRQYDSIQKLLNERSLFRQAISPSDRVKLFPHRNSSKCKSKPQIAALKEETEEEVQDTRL

| EC30 | Structure (SMILES) |
| --- | --- |
| +++ (“+++” means <3 uM) | CCCc1ccccc1-c1cnc(Oc2c(C)cc(C)cc2C)c(C(=O)NS(=O)(=O)c2cccc(N)n2)c1 [Compound 429, N-[(6-amino-2-pyridyl)sulfonyl]-5-(2-propylphenyl)-2-(2,4,6-trimethylphenoxy)pyridine-3-carboxamide] |
| +++ (“+++” means <3 uM) | C=Cc1ccc(C(=O)NS(=O)(=O)c2cccc(N)n2)c(Oc2c(C)cc(C)cc2C)n1 [Compound 430, N-[(6-amino-2-pyridyl)sulfonyl]-2-(2,4,6-trimethylphenoxy)-6-vinyl-pyridine-3-carboxamide] |
| +++ (“+++” means <3 uM) | CCOc1ccc(-c2ccc(C(=O)NS(=O)(=O)c3nccnc3N)c(Oc3ccc(C)cc3C)n2)cc1 [Compound 434, N-(3-aminopyrazin-2-yl)sulfonyl-2-(2,4-dimethylphenoxy)-6-(4-ethoxyphenyl)pyridine-3-carboxamide] |
| +++ (“+++” means <3 uM) | CC(C)Oc1ccc(-c2ccc(C(=O)NS(=O)(=O)c3cccc(N)n3)c(N3CCC(C)C(C)(C)C3)n2)cn1 (stereo not shown) [Compound 435, N-[(6-amino-2-pyridyl)sulfonyl]-6-(6-isopropoxy-3-pyridyl)-2-(3,3,4-trimethyl-1-piperidyl)pyridine-3-carboxamide] |
| +++ (“+++” means <3 uM) | Cc1cc(C)c(Oc2nc(-c3ccc(OC(C)C)cc3)ccc2C(=O)NS(=O)(=O)c2cccc(N)n2)c(C)c1 [Compound 436, N-[(6-amino-2-pyridyl)sulfonyl]-6-(4-isopropoxyphenyl)-2-(2,4,6-trimethylphenoxy)pyridine-3-carboxamide] |
| +++ (“+++” means <3 uM) | CC1CN(c2nc(-c3ccc(NC(C)C)nc3)ccc2C(=O)NS(=O)(=O)c2cccc(N)n2)C(C)(C)C1 (stereo not shown) [Compound 437, N-[(6-amino-2-pyridyl)sulfonyl]-6-[16-(isopropylamino)-3-pyridyl]-2-(2,2,4-trimethylpyrrolidin-1-yl)pyridine-3-carboxamide] |
| +++ (“+++” means <3 uM) | Cc1cc(C)c(Oc2nc(-c3ccc(F)cc3F)ccc2C(=O)NS(=O)(=O)c2cccc(N)n2)c(C)c1 [Compound 439, N-[(6-amino-2-pyridyl)sulfonyl]-6-(2,4-difluorophenyl)-2-(2,4,6-trimethylphenoxy)pyridine-3-carboxamide] |
| +++ (“+++” means <3 uM) | CC(C)Oc1ccc(-c2ccc(C(=O)NS(=O)(=O)c3cccc(N)n3)c(N3CC[C@@H](C)[C@H]3C)n2)cn1 [Compound 441, N-[(6-amino-2-pyridyl)sulfonyl]-2-[(2R,3R)-2,3-dimethylpyrrolidin-1-yl]-6-(6-isopropoxy-3-pyridyl)pyridine-3-carboxamide] |
| + (“+” means greater than 10 uM) | Cc1cc(C(C)(C)C)cc(C)c1Cn1nc(C(C)(C)C)cc1C(=O)NS(=O)(=O)c1ccccc1 [Compound 443, N-(benzenesulfonyl)-5-tert-butyl-2-[(4-tert-butyl-2,6-dimethyl-phenyl)methyl]pyrazole-3-carboxamide] |
| ++ (“++” means between 3 uM and 10 uM) | Cc1ccc(-c2nc3c(cc2C(=O)NS(=O)(=O)c2cccc(N)n2)CCCC3(C)C)cc1 [Compound 444, N-[(6-amino-2-pyridyl)sulfonyl]-8,8-dimethyl-2-(p-tolyl)-6,7-dihydro-5H-quinoline-3-carboxamide] |
| + (“+” means greater than 10 uM) | CCOc1ccc(-c2ccc(C(=O)NS(=O)(=O)c3ccn[nH]3)c(N3CCC(C)CC3)n2)cc1 [Compound 445, 6-(4-ethoxyphenyl)-2-(4-methyl-1-piperidyl)-N-(1H-pyrazol-5-ylsulfonyl)pyridine-3-carboxamide] |
| +++ (“+++” means <3 uM) | CC(C)Oc1ccc(-c2ccc(C(=O)NS(=O)(=O)c3ccn[nH]3)c(N3C[C@H](C)C[C@H](C)C3)n2)cn1 [Compound 446, 2-[(3R,5S)-3,5-dimethyl-1-piperidyl]-6-(6-isopropoxy-3-pyridyl)-N-(1H-pyrazol-5-ylsulfonyl)pyridine-3-carboxamide] |
| +++ (“+++” means <3 uM) | Cc1cc(C)c(CN2C(C(=O)NS(=O)(=O)c3ccc(C)c(N)c3)c3ccccc3C2(C)C)c(C)c1 (stereo not shown) [Compound 448, N-(3-amino-4-methyl-phenyl)sulfonyl-3,3-dimethyl-2-[(2,4,6-trimethylphenyl)methyl]isoindoline-1-carboxamide] |
| + (“+” means greater than 10 uM) | COc1ncc(-c2ccc(C(=O)NS(=O)(=O)c3cccc(N)n3)c(Oc3c(C)cc(C)cc3C)n2)cn1 [Compound 449, N-[(6-amino-2-pyridyl)sulfonyl]-6-(2-methoxypyrimidin-5-yl)-2-(2,4,6-trimethylphenoxy)pyridine-3-carboxamide] |
| +++ (“+++” means <3 uM) | Cc1cc(C)c(Oc2nc(-c3cccc(C)c3O)ccc2C(=O)NS(=O)(=O)c2cccc(N)n2)c(C)c1 [Compound 450, N-[(6-amino-2-pyridyl)sulfonyl]-6-(2-hydroxy-3-methyl-phenyl)-2-(2,4,6-trimethylphenoxy)pyridine-3-carboxamide] |

| Structure (SMILES) | EC30 |
| --- | --- |
| C#CC1CCCN(c2nc(-c3cc(F)cc(OCC(C)C)c3)ccc2C(=O)NS(=O)(=O)c2ccn[nH]2)C1 (stereo not shown) [Compound 431, 2-(3-ethynyl-1-piperidyl)-6-(3-fluoro-5-isobutoxy-phenyl)-N-(1H-pyrazol-5-ylsulfonyl)pyridine-3-carboxamide] | ++ (“++” means between 3 uM and 10 uM) |
| CC(C)COc1cccc(-c2ccc(C(=O)NS(=O)(=O)c3cccc(N)n3)c(N3[C@H](C)CC[C@@H]3C)n2)n1 [Compound 432, N-[(6-amino-2-pyridyl)sulfonyl]-2-[(2S,5R)-2,5-dimethylpyrrolidin-1-yl]-6-(6-isobutoxy-2-pyridyl)pyridine-3-carboxamide] | +++ (“+++” means <3 uM) |
| CC(C)COc1cc(F)cc(-c2ccc(C(=O)NS(=O)(=O)c3cccc(N)n3)c(OC3CCOC3)n2)c1 (stereo not shown) [Compound 433, N-[(6-amino-2-pyridyl)sulfonyl]-6-(3-fluoro-5-isobutoxy-phenyl)-2-tetrahydrofuran-3-yloxy-pyridine-3-carboxamide] | +++ (“+++” means <3 uM) |
| CC(C)COc1cc(F)cc(-c2ccc(C(=O)NS(=O)(=O)c3cccc(N)n3)c(OC3CCC(C)CC3)n2)c1 (stereo not shown) [Compound 438, N-[(6-amino-2-pyridyl)sulfonyl]-6-(3-fluoro-5-isobutoxy-phenyl)-2-(4-methylcyclohexoxy)pyridine-3-carboxamide] | +++ (“+++” means <3 uM) |
| CC(C)COc1ccc(-c2ccc(C(=O)NS(=O)(=O)c3cccc(N)n3)c(N3CC(C)CC3(C)C)n2)cc1 (stereo not shown) [Compound 440, N-[(6-amino-2-pyridyl)sulfonyl]-6-(4-isobutoxyphenyl)-2-(2,2,4-trimethylpyrrolidin-1-yl)pyridine-3-carboxamide] | +++ (“+++” means <3 uM) |
| CC(C)COc1cc(F)cc(-c2ccc(C(=O)NS(=O)(=O)c3ccn[nH]3)c(N3CCCCC3C)n2)c1 (stereo not shown) [Compound 442, 6-(3-fluoro-5-isobutoxy-phenyl)-2-(2-methyl-1-piperidyl)-N-(1H-pyrazol-5-ylsulfonyl)pyridine-3-carboxamide] | +++ (“+++” means <3 uM) |
| CC(C)COc1cc(F)cc(-c2ccc(C(=O)NS(=O)(=O)c3cccc(N)n3)c(N3CCC[C@@H]3c3ccccc3)n2)c1 [Compound 447, N-[(6-amino-2-pyridyl)sulfonyl]-6-(3-fluoro-5-isobutoxy-phenyl)-2-[(2R)-2-phenylpyrrolidin-1-yl]pyridine-3-carboxamide] | +++ (“+++” means <3 uM) |
